According to patent US9290451B2 (Hoffmann-La Roche Inc., priority 2011, dated 2016):

Assays:
human CB2 receptors = human CB2 receptors (Homo sapiens (Human), UniProt P34972); assay: cAMP assay, CHO cells expressing human CB2 receptors; format: cell-based; settings: CHO cells expressing human CB2, cAMP; read-out: human CB2 EC50
How it was run: (§1)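 CHO cells expressing human CB1 or CB2 were preincubated 30 min at 30 °C in Krebs Ringer bicarbonate buffer with 1 mM IBMX, then exposed to compound 30 min at 30 °C. cAMP quantified by time-resolved FRET against a cAMP standard curve; EC50 values derived.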

human CB1 receptors = human CB1 receptors (Homo sapiens (Human), UniProt P21554); assay: cAMP assay, CHO cells expressing human CB1 receptors; format: cell-based; settings: CHO cells expressing human CB1, cAMP; read-out: human CB1 EC50
How it was run: as §1

Sequence of human CB2 receptors (P34972 whole entry): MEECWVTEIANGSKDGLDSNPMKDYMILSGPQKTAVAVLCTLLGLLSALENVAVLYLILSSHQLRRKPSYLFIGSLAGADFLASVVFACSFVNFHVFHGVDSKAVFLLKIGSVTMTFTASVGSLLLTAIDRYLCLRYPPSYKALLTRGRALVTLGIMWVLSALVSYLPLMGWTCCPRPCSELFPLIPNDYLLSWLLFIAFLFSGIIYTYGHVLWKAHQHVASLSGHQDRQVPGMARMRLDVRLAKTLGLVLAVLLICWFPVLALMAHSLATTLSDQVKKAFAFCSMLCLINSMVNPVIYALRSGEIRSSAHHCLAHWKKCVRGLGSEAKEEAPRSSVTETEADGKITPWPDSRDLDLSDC
Sequence of human CB1 receptors (P21554 whole entry): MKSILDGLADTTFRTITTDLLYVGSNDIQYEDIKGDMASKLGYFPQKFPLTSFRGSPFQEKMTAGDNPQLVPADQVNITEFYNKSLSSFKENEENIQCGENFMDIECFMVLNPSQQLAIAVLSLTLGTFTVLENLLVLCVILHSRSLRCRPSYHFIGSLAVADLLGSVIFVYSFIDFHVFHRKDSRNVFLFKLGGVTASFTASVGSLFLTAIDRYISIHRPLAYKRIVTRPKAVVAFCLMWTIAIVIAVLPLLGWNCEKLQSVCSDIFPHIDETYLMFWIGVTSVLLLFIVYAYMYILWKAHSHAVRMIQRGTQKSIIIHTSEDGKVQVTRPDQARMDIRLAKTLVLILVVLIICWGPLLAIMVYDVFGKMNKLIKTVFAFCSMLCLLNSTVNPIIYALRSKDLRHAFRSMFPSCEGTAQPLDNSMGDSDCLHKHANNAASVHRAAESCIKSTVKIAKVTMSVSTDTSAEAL

| SMILES | EC50 (human CB2 receptors) [nM] | EC50 (human CB1 receptors) [nM] |
| --- | --- | --- |
| CCC(CC)(NC(=O)c1ccc(N(CC(F)(F)F)CC(F)(F)F)c(OCC2CC2)n1)C(=O)OC [Example 220, 2-({5-[Bis-(2,2,2-trifluoro-ethyl)-amino]-6-cyclopropylmethoxy-pyridine-2-carbonyl}-amino)-2-ethyl-butyric acid methyl ester] | 1.6 | 129 |
| O=C(NC1(c2nccs2)COC1)c1ccc(Br)c(OCC(F)(F)F)n1 [Example 282, 5-Bromo-6-(2,2,2-trifluoro-ethoxy)-pyridine-2-carboxylic acid (3-thiazol-2-yl-oxetan-3-yl)-amide] | 368 | > 10000 |
| COC(=O)C(C)(C)NC(=O)c1ccc(N2CCCC2)c(OCC2CC2)n1 [Example 27, 2-[(6-Cyclopropylmethoxy-5-pyrrolidin-1-yl-pyridine-2-carbonyl)-amino]-2-methyl-propionic acid methyl ester] | 4.6 | > 10000 |
| CNC(=O)C(C)(C)NC(=O)c1ccc(C)c(OCC2CC2)n1 [Example 36, 6-Cyclopropylmethoxy-5-methyl-pyridine-2-carboxylic acid (1-methyl-1-methylcarbamoyl-ethyl)-amide] | 974 | > 10000 |
| CC(C)C[C@H](NC(=O)c1ccc(N2CC(O)C2)c(OCC2CC2)n1)C(N)=O [Example 131, 6-Cyclopropylmethoxy-5-(3-hydroxy-azetidin-1-yl)-pyridine-2-carboxylic acid ((S)-1-carbamoyl-3-methyl-butyl)-amide] | 78.4 | > 10000 |
| CCC(CC)(NC(=O)c1ccc(C(F)(F)F)c(OCC2CCOCC2)n1)C(=O)N(C)C [Example 262, 6-(Tetrahydro-pyran-4-ylmethoxy)-5-trifluoromethyl-pyridine-2-carboxylic acid (1-dimethylcarbamoyl-1-ethyl-propyl)-amide] | 74.8 | > 10000 |
| Cc1nc(C(NC(=O)c2ccc(C3CC3)c(OCC3CC3)n2)C2CC2)no1 (centres unmarked) [Example 190, 5-Cyclopropyl-N-(cyclopropyl(5-methyl-1,2,4-oxadiazol-3-yl)methyl)-6-(cyclopropylmethoxy)picolinamide] | 20.4 | > 10000 |
| CNC(=O)C(C)(C)NC(=O)c1ccc(C2CC2)c(-c2cccc(Cl)c2)n1 [Example 67, 6-(3-Chloro-phenyl)-5-cyclopropyl-pyridine-2-carboxylic acid (1-methyl-1-methylcarbamoyl-ethyl)-amide] | 797 | > 10000 |
| CC(C)(NC(=O)c1ccc(N2CCCC2)c(OCC2CC2)n1)C1=NCCO1 [Example 63, 6-Cyclopropylmethoxy-5-pyrrolidin-1-yl-pyridine-2-carboxylic acid [1-(4,5-dihydro-oxazol-2-yl)-1-methyl-ethyl]-amide] | 112 | > 10000 |
| CNC(=O)[C@H](CC(C)C)NC(=O)c1ccc(C2CC2)c(OCC2CCCO2)n1 (stereo partly drawn) [Example 184, 5-Cyclopropyl-N-((S)-4-methyl-1-(methylamino)-1-oxopentan-2-yl)-6-((tetrahydrofuran-2-yl)methoxy)picolinamide] | 3.9 | > 10000 |
| CC(C)C[C@H](NC(=O)c1ccc(NC2CC2)c(OCC2CC2)n1)C(N)=O [Example 134, 5-Cyclopropylamino-6-cyclopropylmethoxy-pyridine-2-carboxylic acid ((S)-1-carbamoyl-3-methyl-butyl)-amide] | 5.1 | 151 |
| CC(C)(NC(=O)c1ccc(C2CCCO2)c(-c2cccc(Cl)c2)n1)c1ncco1 (centres unmarked) [Example 126, 6-(3-Chloro-phenyl)-5-(tetrahydro-furan-2-yl)-pyridine-2-carboxylic acid (1-methyl-1-oxazol-2-yl-ethyl)-amide] | 240 | > 10000 |
| Cc1nc(C(C)(C)NC(=O)c2ccc(C3CCCC3)c(OCC3CC3)n2)no1 [Example 54, 5-Cyclopentyl-6-cyclopropylmethoxy-pyridine-2-carboxylic acid [1-methyl-1-(5-methyl-[1,2,4]oxadiazol-3-yl)-ethyl]-amide] | 11.4 | 2160 |
